Reference: patent US20100119599A1 (ARCHER PHARMACEUTICALS, INC., priority 2006, published 2010)

Columns and labels:
[1] = system: Aβ1-42; assay: Measurement of Aβ1-42 in culture medium of 7W WT APP751 CHO cells by ELISA; type: cell-based, Chinese hamster; details: for activity at 5 µM: Cricetulus griseus, Table 1, 5 μM test compound, CHO cells stably transfected with human APP751, culture medium, ELISA, control DMSO, 0 = no detectable amount, read-out: Aβ1-42 (% of control); for Aβ1-42 (% of control): CHO cells that overexpress APP751, zero = below the detection limit of the assay
Experimental: (§1) Chinese hamster ovary (CHO) cells, stably transfected with human APP751 (7W WT APP751 CHO cells) were used. See, e.g., Koo and Squazzo, J. Biol. Chem., 269(26): 17386-17389, 1994. The cells were maintained in DMEM medium supplemented with 10% fetal bovine serum and 1× mixture of penicillin/streptomycin/fungizone/glutamine mixture (Cambrex, Md.) geneticin as selecting agent in 75 cm^2 cell culture flasks. The 7W WT APP751 CHO cells were plated in 96-well cell culture plates in quadruplicate, containing 200 microliters of culture medium, for 18 hours at 37° C. and 5% CO2. All test compounds were placed in dimethyl sulfoxide (DMSO) before being added to the cultured confluent 7W WT APP751 CHO cells to a concentration of the test compound of 5 μM. The culture medium was collected and diluted before being assayed by ELISAs for Aβ1-40 at 10-fold dilution and Aβ1-42 at 2-fold dilution, respectively. Concentrations of Aβ1-40 and Aβ1-42, expressed in pg/ml, were determined using commercially available ELISAs (Biosource, Calif.) in a colorimetric assay using labeled antibodies detected spectrophotometrically. For compounds with an identification beginning “RI”, the compounds were tested at a concentration of 10 μM for 24 hours. Control cells were treated with DMSO containing no compound. The percentage reduction in levels of Aβ1-40 and Aβ1-42 as compared to control cells not exposed to the test compounds are reported for the compounds in Tables 1, 2, and 3, supra. An entry of “0” indicates no detectable amount of Aβ1-40 or Aβ1-42 according to the assay conditions. The data in Tables 1, 2, and 3 may be rounded to the nearest 0.1%.

[2] = system: Aβ1-40; assay: Measurement of Aβ1-40 in culture medium of 7W WT APP751 CHO cells by ELISA; type: cell-based, Chinese hamster; details: for activity at 5 µM: Cricetulus griseus, Table 1, 5 μM test compound, CHO cells stably transfected with human APP751, culture medium, ELISA, control DMSO, 0 = no detectable amount; for Aβ1-40 (% of control): CHO cells that overexpress APP751, zero = below the detection limit of the assay
Experimental: as §1
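Also: 5 µM test compound but RI-coded compounds at 10 µM for 24 hours.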

COCCOC(=O)C1=C(C)NC2=C(C(=O)CC(c3ccccc3)C2)C1c1ccc([N+](=O)[O-])cc1 (stereo not drawn) [ST017027, 2-methoxyethyl 2-methyl-4-(4-nitrophenyl)-5-oxo-7-phenyl-1,4,6,7,8-pentahydroquinoline-3-carboxylate] was tested, and the activity at 5 µM [1] was 82.1% and the activity at 5 µM [2] was 35.1%.
With CCOC(=O)C1=C(N)n2c(s/c(=C\c3ccncc3)c2=O)=C(C#N)C1c1ccncc1 (stereo not drawn) [ST024405, ethyl 5-amino-8-cyano-3-oxo-7-(4-pyridyl)-2-(4-pyridylmethylene)-4,7-dihydro-1,3-thiazolidino[3,2-a]pyridine-6-carboxylate] the “Aβ1-42 (% of control)” value [1] was 77.41 % of control and the “Aβ1-40 (% of control)” value [2] was 59.66 % of control.
In the case of C=CCOC(=O)C1=C(C)NC2=C(C(=O)CCC2)C1c1ccc(OC)c(OC)c1OC (stereo not drawn) [ST014969, prop-2-enyl 2-methyl-5-oxo-4-(2,3,4-trimethoxyphenyl)-1,4,6,7,8-pentahydroquinoline-3-carboxylate], the activity at 5 µM [1] is reported as 83.3% and the activity at 5 µM [2] is reported as 39.7%.
With CCCCCOC(=O)C1=C(C)NC2=C(C(=O)CC(C)(C)C2)C1c1cc2c(cc1Br)OCO2 (stereo not drawn) [ST216568, pentyl 4-(6-bromo(2H-benzo[d]1,3-dioxolan-5-yl))-2,7,7-trimethyl-5-oxo-1,4,6,7,8-pentahydroquinoline-3-carboxylate] the activity at 5 µM [1] was 24.7% and the activity at 5 µM [2] was 14.8%.
COCCOC(=O)C1=C(C)NC2=C(C(=O)CC(C)(C)C2)C1c1cccnc1 (stereo not drawn) [ST017252, 2-methoxyethyl 2,7,7-trimethyl-5-oxo-4-(3-pyridyl)-1,4,6,7,8-pentahydroquinoline-3-carboxylate] gave an activity at 5 µM [1] of 70.5% and an activity at 5 µM [2] of 89.6%.
CC1=C(C(=O)OC2CCCC2)C(c2ccc(C)s2)C2=C(CCCC2=O)N1 (stereo not drawn) [ST052262, cyclopentyl 2-methyl-4-(5-methyl(2-thienyl))-5-oxo-1,4,6,7,8-pentahydroquinoline-3-carboxylate] showed an activity at 5 µM [1] of 19.7% and an activity at 5 µM [2] of 13.2%.
CCOC(=O)C1=CN(c2ccc(F)cc2)C=C(C(=O)OCC)C1c1cccs1 [ST052327, ethyl 5-(ethoxycarbonyl)-1-(4-fluorophenyl)-4-(2-thienyl)-1,4-dihydropyridine-3-carboxylate] was tested, and the “Aβ1-42 (% of control)” value [1] was 84.33 % of control and the “Aβ1-40 (% of control)” value [2] was 57.74 % of control.
In the case of CC1=C(C(=O)Nc2ccccc2)C(c2cccs2)C(C#N)=C(SCC(=O)Nc2cc(C)cc(C)c2)N1 (stereo not drawn) [RI_11], the “Aβ1-42 (% of control)” value [1] is reported as 35.8 % of control and the “Aβ1-40 (% of control)” value [2] is reported as 52.1 % of control.
CC1=C(C(=O)OCCOc2ccccc2)C(c2ccc(Cl)cc2)C2=C(CC(C)(C)CC2=O)N1 (stereo not drawn) [ST015093, 2-phenoxyethyl 4-(4-chlorophenyl)-2,7,7-trimethyl-5-oxo-1,4,6,7,8-pentahydroquinoline-3-carboxylate] showed an activity at 5 µM [1] of 0% and an activity at 5 µM [2] of 0%.
With CCOC(=O)C1=c2s/c(=C/c3ccccc3C(F)(F)F)c(=O)n2C(N)=C(C#N)C1c1ccccc1C(F)(F)F (stereo not drawn) [ST025089, ethyl 5-amino-6-cyano-3-oxo-7-[2-(trifluoromethyl)phenyl]-2-{[2-(trifluoromethyl)phenyl]methylene}-4,7-dihydro-1,3-thiazolidino[3,2-a]pyridine-8-carboxylate] the “Aβ1-42 (% of control)” value [1] was 33.69 % of control and the “Aβ1-40 (% of control)” value [2] was 48.71 % of control.
Compound CCCCCOC(=O)C1=C(C)NC2=C(C(=O)CCC2)C1c1cc(Br)c(O)c(OC)c1 (stereo not drawn) [ST013170, pentyl 4-(3-bromo-4-hydroxy-5-methoxyphenyl)-2-methyl-5-oxo-1,4,6,7,8-pentahydroquinoline-3-carboxylate] has an activity at 5 µM [1] of 49.8% and an activity at 5 µM [2] of 62.8%.
CC1=C(C(=O)OCCOc2ccccc2)C(c2coc3ccc(C)cc3c2=O)C2=C(CC(C)(C)CC2=O)N1 (stereo not drawn) [ST052392, 2-phenoxyethyl 2,7,7-trimethyl-4-(6-methyl-4-oxochromen-3-yl)-5-oxo-1,4,6,7,8-pentahydroquinoline-3-carboxylate] was tested, and the activity at 5 µM [1] was 11.9% and the activity at 5 µM [2] was 28.1%.
For COc1ccc(C2C(C(=O)OC(C)C)=C(C)NC3=C2C(=O)CC(c2ccccc2)C3)c(OC)c1 (stereo not drawn) [ST017229, methylethyl 4-(2,4-dimethoxyphenyl)-2-methyl-5-oxo-7-phenyl-1,4,6,7,8-pentahydroquinoline-3-carboxylate], the activity at 5 µM [1] was 98.7% and the activity at 5 µM [2] was 63.1%.
Work on CCCCCOC(=O)C1=C(C)NC2=C(C(=O)CC(C)(C)C2)C1c1ccc2c(c1)OCO2 (stereo not drawn) [ST216581, pentyl 4-(2H-benzo[3,4-d]1,3-dioxolan-5-yl)-2,7,7-trimethyl-5-oxo-1,4,6,7,8-pentahydroquinoline-3-carboxylate] yielded an activity at 5 µM [1] of 41.6% and an activity at 5 µM [2] of 28.6%.
In the case of CC1=C(C(=O)Nc2ccccc2)C(c2cccs2)C(C#N)=C(SCC(=O)Nc2cccc(F)c2)N1 (stereo not drawn) [RI_13], the “Aβ1-42 (% of control)” value [1] is reported as 41.3 % of control and the “Aβ1-40 (% of control)” value [2] is reported as 53.8 % of control.
In the case of N#CC1=C(N)n2c(s/c(=C\c3ccccc3)c2=O)=C(C#N)C1c1ccccc1 (stereo not drawn) [RI_95], the “Aβ1-42 (% of control)” value [1] is reported as 69.9 % of control and the “Aβ1-40 (% of control)” value [2] is reported as 67.9 % of control.
Work on CC1=C(C(=O)OCc2ccccc2)C(c2cc3c(cc2[NH+]([O-])O)OCO3)C2=C(CC(C)(C)CC2=O)N1 (stereo not drawn) [ST013052, phenylmethyl 2,7,7-trimethyl-4-(6-nitro(2H-benzo[d]1,3-dioxolan-5-yl))-5-oxo-1,4,6,7,8-pentahydroquinoline-3-carboxylate] yielded an activity at 5 µM [1] of 72.4% and an activity at 5 µM [2] of 68.8%.
In the case of CCCCCOC(=O)C1=C(C)NC2=C(C(=O)CC(C)(C)C2)C1c1ccc(C)cc1 (stereo not drawn) [ST216602, pentyl 2,7,7-trimethyl-4-(4-methylphenyl)-5-oxo-1,4,6,7,8-pentahydroquinoline-3-carboxylate], the activity at 5 µM [1] is reported as 5.01% and the activity at 5 µM [2] is reported as 2.65%.
With CC1=C(C(=O)OCCOc2ccccc2)C(c2ccccc2OC(C)C)C2=C(CCCC2=O)N1 (stereo not drawn) [ST014919, 2-phenoxyethyl 2-methyl-4-[2-(methylethoxy)phenyl]-5-oxo-1,4,6,7,8-pentahydroquinoline-3-carboxylate] the activity at 5 µM [1] was 85.1% and the activity at 5 µM [2] was 63.4%.
Compound CCCOc1ccc(C2C(C(=O)OCCSCC)=C(C)NC3=C2C(=O)CC(C)(C)C3)cc1OC (stereo not drawn) [ST017116, 2-ethylthioethyl 4-(3-methoxy-4-propoxyphenyl)-2,7,7-trimethyl-5-oxo-1,4,6,7,8-pentahydroquinoline-3-carboxylate] has an activity at 5 µM [1] of 43% and an activity at 5 µM [2] of 43.5%.
Compound CCOC(=O)C1=C(C)NC2=C(C(=O)CCC2)C1c1ccc(Br)cc1 (stereo not drawn) [ST211289, ethyl 4-(4-bromophenyl)-2-methyl-5-oxo-1,4,6,7,8-pentahydroquinoline-3-carboxylate] has an activity at 5 µM [1] of 63.6% and an activity at 5 µM [2] of 89.1%.
With COc1ccc(NC(=O)CSC2=C(C#N)C(c3cccs3)C(C(=O)Nc3ccccc3)=C(C)N2)cc1 (stereo not drawn) [RI_58] the “Aβ1-42 (% of control)” value [1] was 25.6 % of control and the “Aβ1-40 (% of control)” value [2] was 23.1 % of control.
Work on CCOC(=O)C1=C(C)NC2=C(C(=O)CCC2)C1c1ccc(Cl)cc1Cl (stereo not drawn) [ST024444, ethyl 4-(2,4-dichlorophenyl)-2-methyl-5-oxo-1,4,6,7,8-pentahydroquinoline-3-carboxylate] yielded an activity at 5 µM [1] of 16.6% and an activity at 5 µM [2] of 37.4%.
For CC1=C(C(=O)Nc2ccccc2)C(c2cccs2)C(C#N)=C(SCC(=O)Nc2ccc(Oc3ccccc3)cc2)N1 (stereo not drawn) [RI_8], the “Aβ1-42 (% of control)” value [1] was 26.4 % of control and the “Aβ1-40 (% of control)” value [2] was 46.1 % of control.
